USRE47493E1, “Substituted bicyclic dihydropyrimidinones and their use as inhibitors of neutrophil elastase activity” (Boehringer Ingelheim International GmbH, priority 2014, dated 2019)

Legend:
Caco-2 cell monolayers = assay: Assay for Determination of Drug Transport Across Human CACO-2 Cells; type: in vitro ADME
Text: Assay for Determination of Drug Transport Across Human CACO-2 Cells
The assay provides information on the potential of a compound to pass the cell membrane, on the extent of oral absorption as well as on whether the compound is actively transported by uptake and/or efflux transporters. For the measurement of permeability across polarized, confluent human cancer colon carcinoma cells 2 (Caco-2) cell monolayers grown on permeable filter supports are used as the in vitro absorption model. Apparent permeability coefficients (PE) of the compounds across the Caco-2 monolayers are measured (pH 7.2, 37° C.) in apical-to-basal (AB) (absorptive) and basal-to-apical (BA) (secretory) transport direction. AB permeability (PEAB) represents drug absorption from the intestine into the blood and BA permeability (PEBA) drug secretion from the blood back into the intestine via both passive permeability as well as active transport mechanisms mediated by efflux and uptake transporters that are expressed on the Caco-2 cells. The compounds are assigned to permeability/absorption classes by comparison of the AB permeabilities with the AB permeabilities of reference compounds with known in vitro permeability and oral absorption in the human. Identical or similar permeabilities in both transport directions indicate passive permeation, vectorial permeability points to additional active transport mechanisms. […] Active transport is concentration-dependently saturable.
Caco-2 cells (1−2*10^5 cells/cm^2 area) are seeded on filter inserts (Costar transwell polycarbonate or PET filters, […] pore size) and cultured (DMEM) for 10 to 25 days. Compounds are dissolved in appropriate solvent (like DMSO, 1-20 mM stock solutions). Stock solutions are diluted with HTP-4 buffer (128.13 mM NaCl, 5.36 mM KCl, 1 mM MgSO4, 1.8 mM CaCl2, 4.17 mM NaHCO3, 1.19 mM Na2HPO4×7H2O, 0.41 mM NaH2PO4×H2O, 15 mM HEPES, 20 mM glucose, pH 7.2) to prepare the transport solutions (typically […] compound, final DMSO <=0.5%). The transport solution (TL) is applied to the apical or basolateral donor side for measuring A-B or B-A permeability (3 filter replicates), respectively. The receiver side contains HTP-4 buffer supplemented with 2% BSA. Samples are collected at the start and end of experiment from the donor and at various time intervals for up to 2 hours also from the receiver side for concentration measurement by LC-MS/MS or scintillation counting. Sampled receiver volumes are is replaced with fresh receiver solution.
The apparent permeability coefficients (PEAB and PEBA) and efflux ratios (PEBA/PEAB) of selected compounds in the Caco-2 drug transport assay described above are listed in Table 17.

[1] = biological target: Human neutrophil elastase (Homo sapiens (Human), UniProt P08246); assay: Human Neutrophil Elastase Assay; type: biochemical; conditions: human neutrophil elastase, substrate MeOSuc-Ala-Ala-Pro-Val-AMC, pH 7.5; read-out: IC50
Method: Human Neutrophil Elastase Assay
Materials: Human neutrophil elastase was purchased from Calbiochem (Cat.No.: 324681) and the elastase substrate MeOSuc-Ala-Ala-Pro-Val-AMC from Bachem (Cat.No.: I-1270). All other materials were of the highest grade commercially available.
The following buffers were used: Compound buffer: 100 mM Tris, 500 mM NaCl, adjusted to pH 7.5; Assay buffer: 100 mM Tris, 500 mM NaCl, adjusted to pH 7.5, containing 0.01% BSA.
Assay conditions: Test compounds were prediluted in DMSO and subsequently in compound buffer (5% DMSO final). 5 μL of these compound dilutions were mixed with 10 μl Neutrophil elastase (9 ng/ml in assay buffer) in a black 384 well OptiPlate (Perkin Elmer, Cat No.: 6007270) and incubated for 15 min at room temperature. Subsequently 10 μL substrate solution in assay buffer were added (250 nM final concentration) and the plates were incubated for 60 min at room temperature. After inactivation of the enzyme, fluorescence intensities were measured at 380 nm excitation and 460 nm emission wavelengths.
Each plate contains wells with a high value control (DMSO+enzyme+substrate) and wells with a low value control (DMSO+inactivated enzyme+substrate). IC50 values were estimated using a sigmoidal concentration response curve with variable slope. Means of low values were taken as 0%, means of high values as 100%.

[2] = biological target: neutrophil elastase in human plasma (Homo sapiens (Human), UniProt P08246); assay: Assay for the Determination of Neutrophil Elastase Inhibitory Activity in Human Plasma; type: biochemical; conditions: neutrophil elastase enriched human plasma (zymosan-stimulated blood)
Method: Assay for the Determination of Neutrophil Elastase Inhibitory Activity in Human Plasma
Citrated blood from human healthy donors is mixed with zymosan suspension and incubated at room temperature. This leads to the stimulation of neutrophils and the release of neutrophil elastase into the plasma. The stimulated blood is centrifuged to generate the neutrophil elastase enriched plasma.
Preparation of Zymosan Working Solution:
• single 45 ml blood sample is taken into a 50 ml tube containing citrate (3.13%, 5 mL) and the tube is gently inverted 4 times. • Immediately after blood sampling, zymosan working solution (5 mL) is added. • After the addition of zymosan working solution, the tubes are capped, mixed gently and incubated at 22° C. for 15 min on a shaker at 20 rpm. • Make 10 ml aliquots after the incubation time. • Centrifuge the 15 ml tubes at 800 g for […] at 4° C. in a Jouan centrifuge. • Harvest the plasma and make 1-5 ml aliquots. • Store the plasma at −80° C.
Various concentrations of the neutrophil elastase inhibitor are incubated with plasma. Subsequently, the enzyme activity is measured using the fluorogenic substrate MeOSuc-Ala-Ala-Pro-Val-AMC (Bachem Cat. No. 1-1270, substrate concentration: 250 μM, pH 7.5, 25 mM TRIS buffer, 250 mM NaCl) in analogous fashion as described for the human neutrophil assay. A dose response curve is generated to calculate the EC50 of the inhibitor. The analysis of the data is performed by the calculation of the percentage of fluorescence in the presence of the test compound compared to the fluorescence of the vehicle control after subtracting the background fluorescence: An inhibitor of the neutrophil elastase enzyme will give values between 100% control (no inhibition) and 0% control (complete inhibition). The human plasma shift of selected compounds can be calculated using the following equation: Human plasma shift=(EC50 in human plasma assay)/(IC50 in human neutrophil elastase assay) The EC50 values of selected compounds in the human plasma assay described above are listed in Table 14.

[3] = Assay for Determination of Aqueous Solubility; type: physicochemical; conditions: McIlvaine buffer pH 6.8, 2.5% DMSO, 24 h
Method: Assay for Determination of Aqueous Solubility
The aqueous solubility of a compound is determined by comparing the amount dissolved in aqueous buffer (containing 2.5% DMSO) to the amount dissolved in an acetonitrile/water (1/1) solution. Starting from a 10 mM DMSO stock solution, aliquots are diluted with acetonitrile/water (1/1) and Mcllvaine buffer pH 6.8, respectively. After 24 h of shaking, the solutions or suspensions are filtered and analyzed by LC-UV. The amount dissolved in buffer is compared to the amount dissolved in the acetonitrile/water (1/1) solution. Solubility is measured from 0.001 to 0.125 mg/ml at a DMSO concentration of 2.5%. If more than 90% of the compound is dissolved in buffer, the value is marked with “>”.

[4] = Assay for the Determination of Metabolic Stability with Human Hepatocytes; type: in vitro ADME; conditions: scaled with well stirred model
Method: Assay for the Determination of Metabolic Stability with Human Hepatocytes
The metabolic degradation of the test compound is assayed in a human hepatocyte suspension. Human hepatocytes (typically cryopreserved) are incubated in an appropriate buffer system (e.g. Dulbecco's modified eagle medium plus 3.5 μg glucagon/500 mL, 2.5 mg insulin/500 mL and 3.75 mg/500 mL hydrocortison) containing 5% species serum. Following a (typically) […] preincubation in an incubator (37° C., 10% CO2), 5 μl of test compound solution (80 μM; from 2 mM stock solution in DMSO diluted 1:25 with medium) are added into 395 μl hepatocyte suspension (cell density in the range 0.25-5*10^6 cells/mL, typically 1*10^6 cells/mL; final concentration of test compound 1 μM, final DMSO concentration […]). The cells are incubated for six hours (incubator, orbital shaker) and samples (25 μl) are taken at 0, 0.5, 1, 2, 4 and 6 hours. Samples are transferred into acetonitrile and pelleted by centrifugation (5 min). The supernatant is transferred to a new 96-deepwell plate, evaporated under nitrogen and resuspended. The decline of parent compound is analyzed by LC-MS/MS.
The intrinsic clearance CL_[…] is calculated as follows: CL_[…]=Dose/AUC=(C0/CD)/(AUD+clast/k)*1′000/60 (C0: initial concentration in the incubation [μM], CD: cell density of vital cells [10^6 cells/mL], AUD: area under the data [μM*h], clast: concentration of last data point [μM], k: slope of the regression line for parent decline [h^−1])
The calculated in vitro hepatic intrinsic clearance can be scaled up to the intrinsic in vivo hepatic clearance and used to predict hepatic in vivo blood clearance (CL) by the use of a is liver model (well stirred model): CL_[…]_INVIVO [ml/min/kg]=(CL_[…] [μL/min/10^6 cells]* hepatocellularity[10^6 cells/g liver]*liver factor[g/kg bodyweight])/1′000 CL[ml/min/kg]=CL_[…]_INVIVO [ml/min/kg]*hepatic blood flow [ml/min/kg]/(CL_[…]_INVIVO [ml/min/kg]+hepatic blood flow [ml/min/kg]) Qh[%]=CL[ml/min/kg]/hepatic blood flow[ml/min/kg]) (Hepatocellularity, human: 120*10^6 cells/g liver; lver factor, human: 25.7 g/kg bodyweight; blood flow, human: 21 ml/(min*kg))
The predicted human hepatic in vivo blood clearance (CL) of selected compounds in the metabolic stability assay described above are listed in Table 16.

[5] = Assay for the Determination of Metabolic Stability with Human Liver Microsomes; type: in vitro ADME; conditions: pooled human liver microsomes, 37° C., NADPH
Method: Assay for the Determination of Metabolic Stability with Human Liver Microsomes
The metabolic degradation of the test compound is assayed at 37° C. with pooled human liver microsomes. The final incubation volume of […] per time point contains TRIS buffer pH 7.6 (0.1 M), magnesium chloride (5 mM), microsomal protein (1 mg/ml) and the test compound at a final concentration of […]. Following a short preincubation period at 37° C., the reactions are initiated by addition of beta-nicotinamide adenine dinucleotide phosphate, reduced form (NADPH, 1 mM) and terminated by transfering an aliquot into acetonitrile after different time points. Additionally, the NADPH-independent degradation is monitored in incubations without NADPH, terminated at the last time point. The rol remaining test compound after NADPH independent incubation is reflected by the parameter c(control) (metabolic stability). The quenched incubations are pelleted by centrifugation (10′000 g, 5 min) An aliquot of the supernatant is assayed by LC-MS/MS for the amount of parent compound.
The half-life (t1/2 INVITRO) is determined by the slope of the semilogarithmic plot of the concentration-time profile. The intrinsic clearance (CL_[…]) is calculated by considering the amount of protein in the incubation: CL_[…][μl/min/mg protein]=(ln 2/(half-life [min]*protein content [mg/ml]))*1′000.
The half-life (t1/2 INVITRO) values of selected compounds in the metabolic stability assay described above are listed in Table 15.

Chain of Human neutrophil elastase (P08246 30-267): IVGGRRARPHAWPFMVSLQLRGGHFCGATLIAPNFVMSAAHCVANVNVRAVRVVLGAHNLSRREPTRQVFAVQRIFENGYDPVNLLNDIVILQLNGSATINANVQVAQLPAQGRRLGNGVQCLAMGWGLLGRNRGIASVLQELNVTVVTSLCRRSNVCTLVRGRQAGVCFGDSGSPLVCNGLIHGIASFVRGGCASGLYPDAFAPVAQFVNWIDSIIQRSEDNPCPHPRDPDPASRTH
Chain of neutrophil elastase in human plasma (P08246 30-267): as above

SMILES	Efflux ratio (Caco-2 cell monolayers; Caco-2, PEBA/PEAB)	PEAB (Caco-2 cell monolayers; Caco-2, apical-to-basal, pH 7.2, 37° C.) [×10⁻⁶ cm/s]	PEBA (Caco-2 cell monolayers; Caco-2, basal-to-apical, pH 7.2, 37° C.) [×10⁻⁶ cm/s]	IC50 [1] [nM]	EC50 [2] [nM]	Aqueous solubility [3] [µg/mL]	CL (predicted human hepatic in vivo blood clearance) [4] [mL/min/kg]	t1/2 INVITRO [5] [h]
CCNC(=O)N1C(=O)N(c2cccc(C(F)(F)F)c2)C2=C(C(=O)CCC2)C1c1ccc(C#N)cc1S(C)(=O)=O (stereo not shown) [Example 47.1]	5.4	15	81	< 1	1	73		
CS(=O)(=O)c1cc(C#N)ccc1C1C2=C(CCCC2=O)N(c2cccc(C(F)(F)F)c2)C(=O)N1CCCO (stereo not shown) [Example 58.2]				1.2	3	56	3	>2.17
CS(=O)(=O)c1cc(C#N)ccc1[C@@H]1C2=C(CCCC2=O)N(c2cccc(C(F)(F)F)c2)C(=O)N1C(=O)NC1CCOCC1 [Example 75.16]				< 1	1	66	0	>2.17
